{"source": "patent US11058680B2", "about": "“Combinations of opioid/TLR4 antagonists and acetaminophen for use in the treatment of emotional pain and insomnia” (Allodynic Threapeutics, LLC, priority 2016, dated 2021)", "key": {"[1]": {"tested_on": "patient with chronic low back pain, tendinitis and fear from a near airplane crash", "test": "Example 5 case study", "assay_type": "in vivo, human", "conditions": "acetaminophen and ibuprofen prior to study; naltrexone 2.25 mg and acetaminophen 325 mg Q.I.D"}, "[2]": {"tested_on": "patient with lower back and leg pain and emotional pain due to separation from a child", "test": "Example 12 case study, patient diary", "conditions": "for API, average pain intensity (0-10 NRS) / Insomnia (0-10 NRS) / PRSI, Pain Related Sleep Interference (0-10 NRS) / WEP, Worst Emotional Pain (0-10 NRS) / WPI, Worst Pain Intensity (0-10 NRS): Ibuprofen 800 mg T.I.D. PRN 2006-2010"}, "[3]": {"tested_on": "patients with low back pain (LBP)", "test": "Naltrexone/acetaminophen open-label pilot study for low back pain, daily patient diary (WPI, API, WEP, PRSI, insomnia, PGIC, energy, activity)", "assay_type": "in vivo, human", "protocol": "Twenty patients of whom 16 had chronic low back pain (CLBP), three had acute LBP and one had pain due to Temporomandibular disorders (TMD) were evaluated in an open label pilot study. […] The patient reported diary questionnaire included the following questions.\nQuestion No. 1: Choose one number that best describes the “Worst Pain” in your lower back in the last 24 hours (WPI) [measured on an 11-point NRS (0=no pain, 10=worst pain possible)].\nQuestion No. 2: Choose one number that best describes the “Average Pain” in your lower back in the last 24 hours (API) [measured on an 11-point NRS (0=no pain, 10=worst pain possible)].\nQuestion No. 3: Choose one number that best describes the “Worst Emotional Pain” you experienced in the last 24 hours. (E.g., “Today, I experienced hurt feelings, and/or anger, and/or fear, and/or sadness”).\nQuestion No. 4: Choose one number that best describes how pain has interfered with your sleep in the last 24 hours [Pain Related Sleep Interference (PRSI) measured on an 11-point NRS (0=no interference, 10=complete interference)].\nQuestion No. 5: Have you experienced difficulty sleeping or falling asleep (insomnia) in the last 24 hours [measured on an 11-point NRS (0=no insomnia, 10=worst insomnia possible)]."}, "[4]": {"tested_on": "patient with emotional pain due to football team losses and low back pain", "test": "Example 4 case study, patient diary", "assay_type": "in vivo, human"}, "[5]": {"tested_on": "patient with emotional pain due to severe pain caused by acute spinal disk herniation", "test": "Example 6 case study, patient diary", "assay_type": "in vivo, human", "protocol": "They scheduled an elective inguinal hernia surgery during a time that they had already planned time off from work for their spouse and themself. […] The day after the incident, they took acetaminophen 3000 mg. […] They were in the process of purchasing a home, which they found stressful."}, "[6]": {"tested_on": "patient with lower back pain and emotional pain due to conflict at work", "test": "Example 7 case study", "assay_type": "in vivo, human", "conditions": "acetaminophen 4 times, one day, naltrexone 2.25 mg and Tylenol 325 mg twice daily"}, "[7]": {"tested_on": "patient with lower back pain and emotional pain due to anger with poorly-performing employees", "test": "Example 10 case study, patient diary", "assay_type": "in vivo, human", "text": "A person building contractor with a history of lower back pain reported emotional pain due to frustration with their three employees' poor job performance. […] Treatment with naltrexone and acetaminophen eliminated their physical, as well as their emotional pain, which happened overnight."}, "[8]": {"tested_on": "patient with emotional pain due to relationship break-up", "test": "Example 11 case study, patient diary", "assay_type": "in vivo, human", "conditions": "APAP 325 mg Q.I.D., Sep. 25-Oct. 2, 2015"}, "[9]": {"tested_on": "migraine", "conditions": "literature, Brandes et al. JAMA 2007; cited from earlier work"}, "[10]": {"tested_on": "patient with emotional pain due to adjustment disorder, grieving passing of a pet", "test": "Example 2 case study, emotional pain diary on 4-point scale (0=none, 1=mild, 2=moderate, 3=severe)", "assay_type": "in vivo, human", "conditions": "xanax before study treatment", "text": "The patient experienced a stressful life event (bereavement) that interfered with social functioning. […] The emotional pain intensity was rated on a 4-point unipolar scale (0=none, 1=mild, 2=moderate, 3=severe)."}, "[11]": {"conditions": "Naltrexone 2.25 mg Q.I.D./Clonidine 0.025 mg Q.I.D. 2010-2015, APAP 325 mg Q.I.D. Jun. 29-Jul. 6, 2015, Naltrexone 2.5 mg Q.I.D. to Jul. 8, 2015, Naltrexone 2.25 mg/APAP 325 mg Q.I.D. Jul. 9-Oct. 4, 2015"}, "[12]": {"conditions": "on treatment, last day, APAP 325 mg alone (N = 8, avg 9.83 days), NTX/APAP 2.25/325 mg (n = 18, avg 25.4 days)"}, "[13]": {"conditions": "treatment period, APAP 325 mg alone, NTX/APAP 2.25/325 mg"}, "[14]": {"conditions": "APAP 325 mg Q.I.D. Jun. 29-Jul. 8, 2015, NTX 2.25 mg/APAP 325 mg Q.I.D. Jul. 9-Aug. 9, 2015"}, "[15]": {"conditions": "APAP 325 mg Q.I.D., NTX 2.25 mg/APAP 325 mg Q.I.D."}, "[16]": {"conditions": "APAP 1000 mg TID, Aug. 18-19, 2015"}, "[17]": {"conditions": "acetaminophen 3000 mg, the day after the incident"}, "[18]": {"conditions": "APAP 325 mg Q.I.D., Sep. 29-Oct. 1, 2015"}, "[19]": {"conditions": "acetaminophen for three days, naltrexone and acetaminophen, overnight"}}, "data": [{"smiles": "CC(C)Cc1ccc(C(C)C(=O)O)cc1", "note": "(stereo not shown) [Ibuprofen]", "values": [{"measurement": "relief of physical pain (low back, foot)", "setting": "[1]", "value": "without significant relief"}, {"measurement": "API, average pain intensity (0-10 NRS)", "setting": "[2]; [11]", "value": 5.5}, {"measurement": "Insomnia (0-10 NRS)", "setting": "[2]; [11]", "value": 9}, {"measurement": "PRSI, Pain Related Sleep Interference (0-10 NRS)", "setting": "[2]; [11]", "value": 7}, {"measurement": "WEP, Worst Emotional Pain (0-10 NRS)", "setting": "[2]; [11]", "value": 7}, {"measurement": "WPI, Worst Pain Intensity (0-10 NRS)", "setting": "[2]; [11]", "value": 6}]}, {"smiles": "CC(=O)Nc1ccc(O)cc1", "note": "[acetaminophen]", "values": [{"measurement": "API Avg., average pain intensity (0-10 NRS)", "setting": "[3]; [12]", "value": 4.25}, {"measurement": "Activity Avg., change in activity level (1-7 Likert)", "setting": "[3]; [12]", "value": 4.67}, {"measurement": "Energy Avg., change in energy level (1-7 Likert)", "setting": "[3]; [12]", "value": 4.67}, {"measurement": "Insomnia Avg. (0-10 NRS)", "setting": "[3]; [12]", "value": 4.33}, {"measurement": "PGIC Avg., Patient Global Impression of Change (1-7 Likert, 7 = very much improved)", "setting": "[3]; [12]", "value": 5.00}, {"measurement": "PRSI Avg., Pain Related Sleep Interference (0-10 NRS)", "setting": "[3]; [12]", "value": 4.00}, {"measurement": "WEP Avg., Worst Emotional Pain (0-10 NRS)", "setting": "[3]; [12]", "value": 5.17}, {"measurement": "WPI Avg., Worst Pain Intensity (0-10 NRS)", "setting": "[3]; [12]", "value": 5.25}, {"measurement": "Mean Improvement from Baseline, API (0-10 NRS)", "setting": "[3]; [13]", "value": 1.28}, {"measurement": "Mean Improvement from Baseline, Insomnia (0-10 NRS)", "setting": "[3]; [13]", "value": "−0.23"}, {"measurement": "Mean Improvement from Baseline, PRSI (0-10 NRS)", "setting": "[3]; [13]", "value": 0.90}, {"measurement": "Mean Improvement from Baseline, WEP (0-10 NRS)", "setting": "[3]; [13]", "value": 0.14}, {"measurement": "Mean Improvement from Baseline, WPI (0-10 NRS)", "setting": "[3]; [13]", "value": 1.43}, {"measurement": "API, average pain intensity (0-10 NRS)", "setting": "[4]; [14]", "value": 3}, {"measurement": "Insomnia (0-10 NRS)", "setting": "[4]; [14]", "value": 0}, {"measurement": "PRSI, Pain Related Sleep Interference (0-10 NRS)", "setting": "[4]; [14]", "value": 0}, {"measurement": "WEP, Worst Emotional Pain (0-10 NRS)", "setting": "[4]; [14]", "value": 2}, {"measurement": "WPI, Worst Pain Intensity (0-10 NRS)", "setting": "[4]; [14]", "value": 3}, {"measurement": "Improvement from baseline, API", "setting": "[4]; [15]", "value": 25, "unit": "%"}, {"measurement": "Improvement from baseline, WEP", "setting": "[4]; [15]", "value": 33, "unit": "%"}, {"measurement": "Improvement from baseline, WPI", "setting": "[4]; [15]", "value": 40, "unit": "%"}, {"measurement": "ability to handle emotional disturbance due to team losses", "setting": "[4]; Tylenol 325 mg, 4 times daily for 10 days", "value": "did not report improvement"}, {"measurement": "elimination/reduction of emotional and physical pain symptoms", "setting": "[4]; naltrexone and acetaminophen for one month, acetaminophen alone", "value": "25%-40%"}, {"measurement": "relief of physical pain (low back, foot)", "setting": "[1]", "value": "without significant relief"}, {"measurement": "API, average pain intensity (0-10 NRS)", "setting": "[5]; [16]", "value": 8}, {"measurement": "Insomnia (0-10 NRS)", "setting": "[5]; [16]", "value": 9}, {"measurement": "PGIC (1-7 Likert)", "setting": "[5]; [16]", "value": 5}, {"measurement": "PRSI, Pain Related Sleep Interference (0-10 NRS)", "setting": "[5]; [16]", "value": 9}, {"measurement": "WEP, Worst Emotional Pain (0-10 NRS)", "setting": "[5]; [16]", "value": 6}, {"measurement": "WPI, Worst Pain Intensity (0-10 NRS)", "setting": "[5]; [16]", "value": 9}, {"measurement": "emotional pain (NRS)", "setting": "[5]; [17]", "value": "6 /10"}, {"measurement": "insomnia improved by", "setting": "[5]; [17]", "value": 1, "unit": "point"}, {"measurement": "pain level improved by", "setting": "[5]; [17]", "value": 1, "unit": "point"}, {"measurement": "emotional pain (patient report)", "setting": "[6]", "value": "did not notice a change"}, {"measurement": "back pain (patient report)", "setting": "[6]; within three days", "value": "slight improvement"}, {"measurement": "API, average pain intensity (0-10 NRS)", "setting": "[7]; [18]", "value": 2.5}, {"measurement": "Insomnia (0-10 NRS)", "setting": "[7]; [18]", "value": 2}, {"measurement": "PGIC (1-7 Likert)", "setting": "[7]; [18]", "value": 5}, {"measurement": "PRSI, Pain Related Sleep Interference (0-10 NRS)", "setting": "[7]; [18]", "value": 4}, {"measurement": "WEP, Worst Emotional Pain (0-10 NRS)", "setting": "[7]; [18]", "value": 3}, {"measurement": "WPI, Worst Pain Intensity (0-10 NRS)", "setting": "[7]; [18]", "value": 4}, {"measurement": "back/physical pain (patient report)", "setting": "[7]; [19]", "value": "improved their back pain"}, {"measurement": "emotional pain (patient report)", "setting": "[7]; [19]", "value": "remained unchanged"}, {"measurement": "API, average pain intensity (0-10 NRS)", "setting": "[8]", "value": 5}, {"measurement": "Insomnia (0-10 NRS)", "setting": "[8]", "value": 10}, {"measurement": "PGIC (1-7 Likert)", "setting": "[8]", "value": 5}, {"measurement": "PRSI, Pain Related Sleep Interference (0-10 NRS)", "setting": "[8]", "value": 3.5}, {"measurement": "WEP, Worst Emotional Pain (0-10 NRS)", "setting": "[8]", "value": 10}, {"measurement": "WPI, Worst Pain Intensity (0-10 NRS)", "setting": "[8]", "value": 7}, {"measurement": "API, average pain intensity (0-10 NRS)", "setting": "[2]; [11]", "value": 3.5}, {"measurement": "Insomnia (0-10 NRS)", "setting": "[2]; [11]", "value": 5.5}, {"measurement": "PRSI, Pain Related Sleep Interference (0-10 NRS)", "setting": "[2]; [11]", "value": 4.5}, {"measurement": "WEP, Worst Emotional Pain (0-10 NRS)", "setting": "[2]; [11]", "value": 5.0}, {"measurement": "WPI, Worst Pain Intensity (0-10 NRS)", "setting": "[2]; [11]", "value": 4.5}, {"measurement": "PGIC (1-7 Likert)", "setting": "[2]; [11]", "value": 5}, {"measurement": "emotional pain due to separation from child (patient report)", "setting": "[2]; naltrexone/clonidine, acetaminophen 325 mg four times daily 5 days, naltrexone alone 12 days, naltrexone 2.25 mg and acetaminophen 325 mg four times daily almost three months", "value": "same level of emotional pain"}]}, {"smiles": "CNS(=O)(=O)Cc1ccc2[nH]cc(CCN(C)C)c2c1", "note": "[sumatriptan]", "values": [{"measurement": "2-hour headache (migraine) pain-free", "setting": "[9]", "value": 25, "unit": "%"}]}, {"smiles": "Cc1nnc2n1-c1ccc(Cl)cc1C(c1ccccc1)=NC2", "note": "[xanax]", "values": [{"measurement": "relief of emotional pain (patient report)", "setting": "[10]", "value": "did not help"}]}]}
